The source of these data is patent US20250215012A1, “IKZF2 DEGRADERS AND USES THEREOF” (REGENTS OF THE UNIVERSITY OF MICHIGAN, priority 2022, published 2025).

The test has as its target IKZF2 (Homo sapiens (Human), UniProt Q96SW2+Q9UKS7). As to the kind of experiment: IKZF2 HiBiT Assay (Jurkat-IKZF2-HiBiT cell line). In kind it is cell-based. The conditions noted are these: Jurkat-IKZF2-HiBiT cells, 24 hours; for DC50: read-out: HiBit assay degradation analysis DC50; for Dmax: read-out: HiBit assay degradation analysis Dmax. An outline of the steps: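 IKZF2 degradation was assessed as HiBiT luminescence in Jurkat-IKZF2-HiBiT cells, using lytic detection after 24 h of compound treatment at 37 °C, 5% CO2.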

As usually defined, the DC50 is the midpoint of the concentration-degradation curve. The term Dmax denotes the greatest extent of degradation seen.

Sequence of IKZF2 (Q9UKS7 whole entry): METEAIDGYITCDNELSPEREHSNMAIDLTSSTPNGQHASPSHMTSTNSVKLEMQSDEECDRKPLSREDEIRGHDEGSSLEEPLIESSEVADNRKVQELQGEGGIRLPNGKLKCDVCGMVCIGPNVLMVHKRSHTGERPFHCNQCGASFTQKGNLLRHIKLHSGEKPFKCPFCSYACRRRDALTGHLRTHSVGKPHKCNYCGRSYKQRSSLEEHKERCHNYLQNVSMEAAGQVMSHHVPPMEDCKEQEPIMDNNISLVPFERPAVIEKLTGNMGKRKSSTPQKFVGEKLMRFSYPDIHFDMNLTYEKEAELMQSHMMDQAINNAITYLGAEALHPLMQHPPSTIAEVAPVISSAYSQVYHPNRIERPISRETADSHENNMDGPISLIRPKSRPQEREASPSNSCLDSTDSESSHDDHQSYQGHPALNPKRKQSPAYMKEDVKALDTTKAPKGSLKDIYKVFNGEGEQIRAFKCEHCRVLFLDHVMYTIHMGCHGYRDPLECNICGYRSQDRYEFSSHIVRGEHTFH
Sequence of IKZF2 (Q96SW2 whole entry): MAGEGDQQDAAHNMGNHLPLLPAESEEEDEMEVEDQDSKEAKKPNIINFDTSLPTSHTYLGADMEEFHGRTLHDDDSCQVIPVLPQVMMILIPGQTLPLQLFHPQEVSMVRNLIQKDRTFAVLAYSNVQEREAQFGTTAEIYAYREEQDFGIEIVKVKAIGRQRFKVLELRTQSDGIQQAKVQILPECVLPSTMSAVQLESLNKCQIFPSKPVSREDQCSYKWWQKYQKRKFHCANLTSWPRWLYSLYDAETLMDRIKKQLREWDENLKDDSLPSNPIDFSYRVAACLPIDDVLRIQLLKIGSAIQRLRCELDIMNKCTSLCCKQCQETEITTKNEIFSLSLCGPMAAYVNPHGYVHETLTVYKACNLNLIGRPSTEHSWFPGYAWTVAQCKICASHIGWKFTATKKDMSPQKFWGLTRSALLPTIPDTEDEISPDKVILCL
Sequence of IKZF2 (Q16531 whole entry partner): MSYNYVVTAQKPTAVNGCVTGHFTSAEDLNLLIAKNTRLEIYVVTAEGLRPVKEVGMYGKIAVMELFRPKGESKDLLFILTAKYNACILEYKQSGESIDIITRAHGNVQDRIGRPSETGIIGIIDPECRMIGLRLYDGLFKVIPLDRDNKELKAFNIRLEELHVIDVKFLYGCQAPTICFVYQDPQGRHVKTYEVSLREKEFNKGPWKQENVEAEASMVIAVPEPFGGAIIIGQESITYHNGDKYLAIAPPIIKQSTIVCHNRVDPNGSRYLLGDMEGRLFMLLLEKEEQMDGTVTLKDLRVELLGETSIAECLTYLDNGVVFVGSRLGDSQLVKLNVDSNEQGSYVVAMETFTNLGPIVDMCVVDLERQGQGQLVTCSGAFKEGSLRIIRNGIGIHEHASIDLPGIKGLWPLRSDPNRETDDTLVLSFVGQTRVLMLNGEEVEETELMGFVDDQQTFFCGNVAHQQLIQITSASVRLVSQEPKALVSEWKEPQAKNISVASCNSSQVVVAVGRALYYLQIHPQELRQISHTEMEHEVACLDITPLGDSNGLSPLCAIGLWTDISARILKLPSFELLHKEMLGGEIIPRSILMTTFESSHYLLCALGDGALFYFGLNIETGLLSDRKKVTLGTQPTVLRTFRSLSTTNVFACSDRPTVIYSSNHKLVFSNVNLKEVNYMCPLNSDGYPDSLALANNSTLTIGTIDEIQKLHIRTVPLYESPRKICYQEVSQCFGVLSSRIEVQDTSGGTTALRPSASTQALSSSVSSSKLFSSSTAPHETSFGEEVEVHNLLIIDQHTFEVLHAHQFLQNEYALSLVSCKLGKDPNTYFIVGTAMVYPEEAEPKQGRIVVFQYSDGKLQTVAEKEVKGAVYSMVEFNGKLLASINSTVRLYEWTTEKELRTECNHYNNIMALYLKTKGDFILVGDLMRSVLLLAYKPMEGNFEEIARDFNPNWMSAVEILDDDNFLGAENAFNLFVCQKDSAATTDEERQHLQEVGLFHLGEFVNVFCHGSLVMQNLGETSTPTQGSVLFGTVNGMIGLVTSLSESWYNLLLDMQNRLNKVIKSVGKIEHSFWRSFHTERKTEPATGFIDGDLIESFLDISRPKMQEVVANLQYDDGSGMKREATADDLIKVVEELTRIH

Consider `O=C1CCC(N2Cc3c(ccc4c3OCC43CCN(Cc4ccc5ccn(Cc6cccnc6)c5c4)CC3)C2=O)C(=O)N1` (centres unmarked) [Compound A154, 3-(6-oxo-1′-((1-(pyridin-3-ylmethyl)-1H-indol-6-yl)methyl)-6,8-dihydro-2H,7H-spiro[furo[2,3-e]isoindole-3,4′-piperidin]-7-yl)piperidine-2,6-dione], for which the DC50 is 200 to 500 nM and the Dmax was in the range of 60 to 80%.

On to `O=C1CCC(N2Cc3c(ccc4c3OCC43CCN(Cc4cccc(NS(=O)(=O)c5ccccc5)c4)CC3)C2=O)C(=O)N1` (centres unmarked) [Compound A261, N-(3-((7-(2,6-dioxopiperidin-3-yl)-6-oxo-7,8-dihydro-2H,6H-spiro[furo[2,3-e]isoindole-3,4′-piperidin]-1′-yl)methyl)phenyl)benzenesulfonamide], for which the DC50 is more than 500 nM and the Dmax is less than 40%.

For `Cc1[nH]c2c(CN3CCC4(CC3)COc3c4ccc4c3CN(C3CCC(=O)NC3=O)C4=O)cccc2c1C` (centres unmarked) [Compound A111, 3-(1′-((2,3-dimethyl-1H-indol-7-yl)methyl)-6-oxo-6,8-dihydro-2H,7H-spiro[furo[2,3-e]isoindole-3,4′-piperidin]-7-yl)piperidine-2,6-dione], the DC50 was 50 to 200 nM and the Dmax lay within 60 to 80%.

On to `Cc1c(-c2cccc(CN3CCC4(CC3)COc3c4ccc4c3CN([C@H]3CCC(=O)NC3=O)C4=O)c2)cnn1C` [Compound A284, (S)-3-(1′-(3-(1,5-dimethyl-1H-pyrazol-4-yl)benzyl)-6-oxo-6,8-dihydro-2H,7H-spiro[furo[2,3-e]isoindole-3,4′-piperidin]-7-yl)piperidine-2,6-dione], for which the DC50 is less than 50 nM and the Dmax fell in the range of 60 to 80%.

Turning to `O=C1CCC(N2Cc3c(ccc4c3OCC43CCN(CC4CC5CCC4C5)CC3)C2=O)C(=O)N1` (centres unmarked) [Compound A24, 3-(1′-(bicyclo[2.2.1]heptan-2-ylmethyl)-6-oxo-6,8-dihydro-2H,7H-spiro[furo[2,3-e]isoindole-3,4′-piperidin]-7-yl)piperidine-2,6-dione], the DC50 is more than 500 nM and the Dmax is 40 to 60%.

For `O=C1CCC(N2Cc3c(ccc4c3OCC43CCN(Cc4cccc5c4CCC5)CC3)C2=O)C(=O)N1` (centres unmarked) [Compound A207, 3-(1′-((2,3-dihydro-1H-inden-4-yl)methyl)-6-oxo-6,8-dihydro-2H,7H-spiro[furo[2,3-e]isoindole-3,4′-piperidin]-7-yl)piperidine-2,6-dione], the 50% degradation concentration (DC50) is more than 500 nM and the maximal degradation (Dmax) was less than 40%.

As to `O=C1CCC(N2Cc3c(ccc4c3OCC43CCN(Cc4ccc5ccccc5c4)CC3)C2=O)C(=O)N1` (centres unmarked) [Compound A34, 3-(1′-(naphthalen-2-ylmethyl)-6-oxo-6,8-dihydro-2H,7H-spiro[furo[2,3-e]isoindole-3,4′-piperidin]-7-yl)piperidine-2,6-dione], the DC50 is less than 50 nM and the Dmax lay in the range of 60 to 80%.

For the compound `O=C1CCC(N2Cc3c(ccc4c3OCC43CCN(Cc4cnn(Cc5ccccc5Cl)c4)CC3)C2=O)C(=O)N1` (centres unmarked) [Compound A240, 3-(1′-((1-(2-chlorobenzyl)-1H-pyrazol-4-yl)methyl)-6-oxo-6,8-dihydro-2H,7H-spiro[furo[2,3-e]isoindole-3,4′-piperidin]-7-yl)piperidine-2,6-dione], the DC50 was less than 50 nM and the Dmax lay in the range of 60 to 80%.

As for `O=C1CCC(N2Cc3c(ccc4c3OCC43CCN(Cc4cccc5c4OCO5)CC3)C2=O)C(=O)N1` (centres unmarked) [Compound A225, 3-(1′-(benzo[d][1,3]dioxol-4-ylmethyl)-6-oxo-6,8-dihydro-2H,7H-spiro[furo[2,3-e]isoindole-3,4′-piperidin]-7-yl)piperidine-2,6-dione], the DC50 is more than 500 nM and the maximal degradation (Dmax) lay within 40 to 60%.

As to `O=C1CCC(N2Cc3c(ccc4c3OCCC43CCN(Cc4ccc(Cl)cc4F)CC3)C2=O)C(=O)N1` (centres unmarked) [Compound A10, 3-(1-(4-chloro-2-fluorobenzyl)-7′-oxo-2′,3′,7′,9′-tetrahydro-8′H-spiro[piperidine-4,4′-pyrano[2,3-e]isoindol]-8′-yl)piperidine-2,6-dione], the DC50 was more than 500 nM and the maximal degradation (Dmax) is less than 40%.

Turning to `O=C1CCC(N2Cc3c(ccc4c3OCC43CCN(CC4CCCc5ccccc54)CC3)C2=O)C(=O)N1` (centres unmarked) [Compound A21, 3-(6-oxo-1′-((1,2,3,4-tetrahydronaphthalen-1-yl)methyl)-6,8-dihydro-2H,7H-spiro[furo[2,3-e]isoindole-3,4′-piperidin]-7-yl)piperidine-2,6-dione], the DC50 is more than 500 nM and the greatest degradation seen (Dmax) is 60 to 80%.

On to `O=C1CCC(N2Cc3c(ccc4c3OCC43CCN(Cc4cnn(Cc5ccccc5)c4)CC3)C2=O)C(=O)N1` (centres unmarked) [Compound A209, 3-(1′-((1-benzyl-1H-pyrazol-4-yl)methyl)-6-oxo-6,8-dihydro-2H,7H-spiro[furo[2,3-e]isoindole-3,4′-piperidin]-7-yl)piperidine-2,6-dione], for which the DC50 is less than 50 nM and the Dmax lay in the range of 60 to 80%.

Take `O=C1CCC(N2Cc3c(ccc4c3OCC43CCN(Cc4ccc(F)cc4Cl)CC3)C2=O)C(=O)N1` (centres unmarked) [Compound A6, 3-(1′-(2-chloro-4-fluorobenzyl)-6-oxo-6,8-dihydro-2H,7H-spiro[furo[2,3-e]isoindoline-3,4′-piperidin]-7-yl)piperidine-2,6-dione]: the DC50 is more than 500 nM and the Dmax was less than 40%.

With `O=C1CCC(N2Cc3c(ccc4c3OCC43CCN(Cc4cccc(CF)c4)CC3)C2=O)C(=O)N1` (centres unmarked) [Compound A93, 3-(1′-(3-(fluoromethyl)benzyl)-6-oxo-6,8-dihydro-2H,7H-spiro[furo[2,3-e]isoindole-3,4′-piperidin]-7-yl)piperidine-2,6-dione], the DC50 lay in the range of 50 to 200 nM and the Dmax fell in the range of 60 to 80%.

Consider `O=C1CCC(N2Cc3c(ccc4c3OCC43CCN(Cc4ccc5c(c4)NC(=O)CO5)CC3)C2=O)C(=O)N1` (centres unmarked) [Compound A153, 3-(6-oxo-1′-((3-oxo-3,4-dihydro-2H-benzo[b][1,4]oxazin-6-yl)methyl)-6,8-dihydro-2H,7H-spiro[furo[2,3-e]isoindole-3,4′-piperidin]-7-yl)piperidine-2,6-dione], for which the DC50 fell in the range of 50 to 200 nM and the Dmax is 60 to 80%.

Take `O=C1CCC(N2Cc3c(ccc4c3OCC43CCN(Cc4cccc5ccnn45)CC3)C2=O)C(=O)N1` (centres unmarked) [Compound A76, 3-(6-oxo-1′-(pyrazolo[1,5-]pyridin-7-ylmethyl)-6,8-dihydro-2H,7H-spiro[furo[2,3-e]isoindole-3,4′-piperidin]-7-yl)piperidine-2,6-dione]: the DC50 was more than 500 nM and the Dmax was less than 40%.

On to `O=C1CCC(N2Cc3c(ccc4c3OCC43CCN(Cc4cnn(CC5COC5)c4)CC3)C2=O)C(=O)N1` (centres unmarked) [Compound A319, 3-(1′-((1-(oxetan-3-ylmethyl)-1H-pyrazol-4-yl)methyl)-6-oxo-6,8-dihydro-2H,7H-spiro[furo[2,3-e]isoindole-3,4′-piperidin]-7-yl)piperidine-2,6-dione], for which the DC50 was more than 500 nM and the Dmax was less than 40%.

For the compound `CC(C)c1cccc(CN2CCC3(CC2)COc2c3ccc3c2CN(C2CCC(=O)NC2=O)C3=O)c1` (centres unmarked) [Compound A203, 3-(1′-(3-isopropylbenzyl)-6-oxo-6,8-dihydro-2H,7H-spiro[furo[2,3-e]isoindole-3,4′-piperidin]-7-yl)piperidine-2,6-dione], the half-maximal degradation concentration (DC50) was more than 500 nM and the Dmax was less than 40%.

Consider `O=C1CCC(N2Cc3c(ccc4c3OCC43CCN(Cc4ccc5nccn5c4)CC3)C2=O)C(=O)N1` (centres unmarked) [Compound A79], for which the DC50 is more than 500 nM and the Dmax is less than 40%.

`O=C1CCC(N2Cc3c(ccc4c3OCC43CCN(Cc4cccc(Oc5ccccc5)c4)CC3)C2=O)C(=O)N1` (centres unmarked) [Compound A86, 3-(6-oxo-1′-(3-phenoxybenzyl)-6,8-dihydro-2H,7H-spiro[furo[2,3-e]isoindole-3,4′-piperidin]-7-yl)piperidine-2,6-dione]: the DC50 is more than 500 nM and the Dmax lay within 40 to 60%.

As for `O=C1CCC(N2Cc3c(ccc4c3OCC43CCN(CC4CCCCC4)CC3)C2=O)C(=O)N1` (centres unmarked) [Compound A7, 3-(1′-(cyclohexylmethyl)-6-oxo-6,8-dihydro-2H,7H-spiro[furo[2,3-e]isoindoline-3,4′-piperidin]-7-yl)piperidine-2,6-dione], the DC50 is more than 500 nM and the Dmax was less than 40%.

Regarding `O=C1CCC(N2Cc3c(ccc4c3OCC43CCN(Cc4cccc(NC(=O)c5ccc(Cl)cc5)c4)CC3)C2=O)C(=O)N1` (centres unmarked) [Compound A178, 4-chloro-N-(3-((7-(2,6-dioxopiperidin-3-yl)-6-oxo-7,8-dihydro-2H,6H-spiro[furo[2,3-e]isoindole-3,4′-piperidin]-1′-yl)methyl)phenyl)benzamide], the DC50 is less than 50 nM and the greatest degradation seen (Dmax) was more than 80%.

For `O=C1CCC(N2Cc3c(ccc4c3OCC43CCN(Cc4ccnc(Cl)c4)CC3)C2=O)C(=O)N1` (centres unmarked) [Compound A250, 3-(1′-((2-chloropyridin-4-yl)methyl)-6-oxo-6,8-dihydro-2H,7H-spiro[furo[2,3-e]isoindole-3,4′-piperidin]-7-yl)piperidine-2,6-dione], the DC50 was more than 500 nM and the Dmax is less than 40%.

As for `O=C1CCC(N2Cc3c(ccc4c3OCC43CCN(Cc4ccnc5ccccc45)CC3)C2=O)C(=O)N1` (centres unmarked) [Compound A44, 3-(6-oxo-1′-(quinolin-4-ylmethyl)-6,8-dihydro-2H,7H-spiro[furo[2,3-e]isoindole-3,4′-piperidin]-7-yl)piperidine-2,6-dione], the DC50 is more than 500 nM and the Dmax is less than 40%.

Turning to `O=C1CCC(N2Cc3c(ccc4c3OCC43CCN(Cc4c(F)ccc5[nH]ccc45)CC3)C2=O)C(=O)N1` (centres unmarked) [Compound A137, 3-(1′-((5-fluoro-1H-indol-4-yl)methyl)-6-oxo-6,8-dihydro-2H,7H-spiro[furo[2,3-e]isoindole-3,4′-piperidin]-7-yl)piperidine-2,6-dione], the DC50 was less than 50 nM and the greatest degradation seen (Dmax) is 60 to 80%.
